{"source": "paper PMC3731359", "about": "(PLoS ONE, 2013)", "key": {"[1]": {"test_system": "Ubc12 (E2)", "experiment": "Western blot: transfer of UB variants to Ubc12", "assay_type": "biochemical", "conditions": "5 µM HA-tagged protein, 1 µM NAE, 1 µM Ubc12, 1 µM cullin, 1 mM ATP, 1 h, room temperature, anti-HA Western blot", "description": "(§1) Figure 6 Transfer of phage selected UB variants to NAE (E1), Ubc12 (E2), and cullin-3. HA-tagged wt UB, wt Nedd8 and UB variants were used in the assay. In the control reaction, either Ubc12 or cullin-3 in complex with Rbx1 was missing. The blots were probed with a mouse anti-HA antibody and a goat anti-mouse IgG antibody linked to HRP.\n(§2) 20 µL of the reaction mixture were loaded on a 4–15% SDS-PAGE gel (Bio-Rad). After electrophoresis, the protein bands were electroblotted onto a piece of polyvinylidene fluoride membrane (Bio-Rad). The membrane was blocked with 3% BSA in TBS buffer for 1 hour followed by incubation with 3% BSA in TBS buffer containing 1∶500 diluted 200 µg/mL anti-HA antibody (Santa Cruz Biotechnology) and 1∶10,000 diluted anti-mouse horseradish peroxidase conjugate (Pierce) for 1 hour, respectively. The membrane was then washed 5 times with TBS-T buffer and 5 times with TBS buffer followed by detection with the ECL luminescent detection kit (GE Healthcare)."}, "[2]": {"test_system": "cullin-3", "experiment": "Western blot: transfer of UB variants to cullin-3", "assay_type": "biochemical", "conditions": "5 µM HA-tagged protein, 1 µM NAE, 1 µM Ubc12, 1 µM cullin, 1 mM ATP, 1 h, room temperature, anti-HA Western blot", "description": "as §1, §2"}, "[3]": {"test_system": "NAE (E1)", "experiment": "Western blot: formation of UB∼NAE thioester conjugates", "assay_type": "biochemical", "conditions": "5 µM HA-tagged protein, 1 µM NAE, 1 mM ATP, 1 h, room temperature, anti-HA Western blot", "description": "as §1, §2"}, "[4]": {"biological_target": "NAE (Homo sapiens) (UniProt Q13564)", "conditions": "cited from earlier work"}, "[5]": {"test_system": "UAE", "conditions": "Ala72 of Nedd8 mutated to Arg; cited from earlier work", "from_the_text": "As expected the two proteins also adopt very similar structures featuring the β-grasp fold. Their E1 enzymes are also homologous to each other in both peptide sequences and crystal structures, except that NAE is a heterodimer of two subunits, APPBP1 and Uba3, while UAE is composed of a single chain [8], [20], [21]."}, "[6]": {"biological_target": "T1, NAE (Homo sapiens, UniProt Q13564+Q8TBC4)", "T1 construct": "made in house; host or cells: E. coli BL21(DE3)pLysS", "T1 sequence (Q8TBC4 22-463 limits assumed)": "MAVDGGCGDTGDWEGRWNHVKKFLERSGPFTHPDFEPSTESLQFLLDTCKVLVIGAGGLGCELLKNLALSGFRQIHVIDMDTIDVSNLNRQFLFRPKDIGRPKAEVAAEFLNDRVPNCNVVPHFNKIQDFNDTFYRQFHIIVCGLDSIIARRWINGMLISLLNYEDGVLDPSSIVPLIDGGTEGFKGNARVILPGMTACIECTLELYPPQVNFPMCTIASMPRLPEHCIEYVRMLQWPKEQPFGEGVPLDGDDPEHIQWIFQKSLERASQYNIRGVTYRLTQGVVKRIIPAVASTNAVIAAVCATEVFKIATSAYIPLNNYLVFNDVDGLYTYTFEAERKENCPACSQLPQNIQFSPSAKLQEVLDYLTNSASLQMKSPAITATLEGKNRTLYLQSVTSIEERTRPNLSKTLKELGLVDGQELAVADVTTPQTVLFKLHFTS", "T1 sequence (Q13564 1-534 partner)": "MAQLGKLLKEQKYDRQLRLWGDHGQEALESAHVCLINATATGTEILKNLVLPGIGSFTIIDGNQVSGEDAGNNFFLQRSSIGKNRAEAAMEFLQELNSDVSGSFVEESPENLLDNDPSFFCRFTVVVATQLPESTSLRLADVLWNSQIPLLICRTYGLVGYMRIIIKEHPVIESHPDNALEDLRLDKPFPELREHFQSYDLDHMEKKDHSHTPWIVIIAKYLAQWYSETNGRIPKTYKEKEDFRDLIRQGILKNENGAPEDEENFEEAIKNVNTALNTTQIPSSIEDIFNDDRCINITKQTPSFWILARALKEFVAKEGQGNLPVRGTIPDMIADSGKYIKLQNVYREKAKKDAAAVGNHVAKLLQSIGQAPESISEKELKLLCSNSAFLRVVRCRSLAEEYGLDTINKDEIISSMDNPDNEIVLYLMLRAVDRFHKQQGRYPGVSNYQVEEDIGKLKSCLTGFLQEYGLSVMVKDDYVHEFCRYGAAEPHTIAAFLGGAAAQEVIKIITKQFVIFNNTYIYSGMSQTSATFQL", "experiment": "ATP/PPi exchange assay (NAE activation kinetics)", "assay_type": "biochemical", "conditions": "50 µM heptameric peptide, 0.5 µM NAE, 30 min, room temperature; versus background with no peptide added", "excerpt": "We used the ATP/PPi exchange assay [28], [29] to measure the kinetics of NAE activation of UB mutants. In this assay, NAE catalyzes the condensation of UB with ATP to form a UB-AMP conjugate coupled to the release of PPi. Externally added PPi labeled with the radioactive isotope ^32P sets the reaction in reverse thus incorporating ^32PPi into ATP. Radioactive ATP formed in the reaction is captured by charcoal and quantified. The rate of ^32PPi exchange into ATP reflects the reactivities of NAE with the UB variants to form UB-AMP intermediates.\nThe reaction was incubated for 30 min at room temperature and then quenched by the addition of 0.5 mL slurry of charcoal in 2% trichloroacetic acid. After centrifugation, the charcoal pellet was washed 3 times each time with 1 mL 2% trichloroacetic acid, and eventually resuspended in 0.5 mL water and 3.5 mL Ultima Gold LSC-cocktail (Perkin Elmer). The radioactivity bound to charcoal was determined by liquid scintillation counting.\nThe reaction was incubated at room temperature for 5, 10, 15, 20 and 25 minutes before it was quenched with the addition of 0.5 mL slurry of charcoal in 2% trichloroacetic acid. The radioactivity incorporated into charcoal-bound ATP was measured by liquid scintillation counting. K1/2 and kcat values of the ATP-PPi exchange reaction were calculated by fitting the data to the Michaelis-Menten equation with the data analysis software Origin. To measure peptide activation by NAE, 0.1 µM NAE was used in the reaction with the concentration of the peptides varying from 10 µM to 1000 µM."}}, "note": "“Also recorded” adds a separate entry of the source.", "data": [{"substance": "N11: UB variant from phage selection, C-terminal sequence 71AAAAGG76", "values": [{"measurement": "transfer from NAE to Ubc12 (UB∼Ubc12 conjugates)", "setting": "[1]", "value": "can also be transferred from NAE to Ubc12"}, {"measurement": "transfer to cullin (cullin modification)", "setting": "[2]", "value": "substantial cullin modification at a level similar or exceeding that of wt Nedd8; also recorded: can also be transferred through the NAE-Ubc12 cascade to modify cullin at a similar level as N26 and the wt Nedd8"}]}, {"substance": "N27: UB variant from phage selection, C-terminal sequence 71YQTYSG76, Gly75 replaced by Ser", "values": [{"measurement": "formation of UB∼NAE conjugates", "setting": "[3]", "value": "normal level of NAE activation and thioester formation with NAE"}, {"measurement": "transfer from NAE to Ubc12 (UB∼Ubc12 conjugates)", "setting": "[1]", "value": "does not form a UB∼Ubc12 conjugate"}, {"measurement": "transfer to cullin (cullin modification)", "setting": "[2]", "value": "its transfer to Ubc12 and cullin is blocked"}]}, {"substance": "Nedd8 (from UniProt Q15843)", "values": [{"measurement": "Kd", "setting": "[4]", "value": 8.75, "unit": "µM"}]}, {"substance": "Nedd8 mutant: Nedd8 with Ala72 mutated to Arg", "values": [{"measurement": "activation by UAE", "setting": "[5]", "value": "can be activated by UAE"}, {"measurement": "increase in affinity with UAE", "setting": "[5]", "value": 65, "unit": "fold"}]}, {"substance": "VAAAAGG [pN11, heptameric peptide VAAAAGG derived from UB variant N11]", "values": [{"measurement": "activation by NAE", "setting": "[6]", "value": "not reactive with NAE"}]}]}
